According to patent publication US20240150377A1, “MODULATORS OF CYSTIC FIBROSIS TRANSMEMBRANE CONDUCTANCE REGULATOR” (VERTEX PHARMACEUTICALS INCORPORATED, priority 2020, published 2024):
Read-outs that look alike come from different tables or passages of the source.

Experiments:
[1] = amide bond, 13-membered ring, DMF, 25.0 °C, 0.33 h
[2] = amide bond, 13-membered ring
CFTR [3] = biological target: T1, CFTR (Homo sapiens, UniProt P13569); test: standard Ussing Chamber Assay for CFTR potentiator activity; assay type: cell-based; settings: qualitative statement
Target sequence in this assay (P13569 whole entry, species assumed): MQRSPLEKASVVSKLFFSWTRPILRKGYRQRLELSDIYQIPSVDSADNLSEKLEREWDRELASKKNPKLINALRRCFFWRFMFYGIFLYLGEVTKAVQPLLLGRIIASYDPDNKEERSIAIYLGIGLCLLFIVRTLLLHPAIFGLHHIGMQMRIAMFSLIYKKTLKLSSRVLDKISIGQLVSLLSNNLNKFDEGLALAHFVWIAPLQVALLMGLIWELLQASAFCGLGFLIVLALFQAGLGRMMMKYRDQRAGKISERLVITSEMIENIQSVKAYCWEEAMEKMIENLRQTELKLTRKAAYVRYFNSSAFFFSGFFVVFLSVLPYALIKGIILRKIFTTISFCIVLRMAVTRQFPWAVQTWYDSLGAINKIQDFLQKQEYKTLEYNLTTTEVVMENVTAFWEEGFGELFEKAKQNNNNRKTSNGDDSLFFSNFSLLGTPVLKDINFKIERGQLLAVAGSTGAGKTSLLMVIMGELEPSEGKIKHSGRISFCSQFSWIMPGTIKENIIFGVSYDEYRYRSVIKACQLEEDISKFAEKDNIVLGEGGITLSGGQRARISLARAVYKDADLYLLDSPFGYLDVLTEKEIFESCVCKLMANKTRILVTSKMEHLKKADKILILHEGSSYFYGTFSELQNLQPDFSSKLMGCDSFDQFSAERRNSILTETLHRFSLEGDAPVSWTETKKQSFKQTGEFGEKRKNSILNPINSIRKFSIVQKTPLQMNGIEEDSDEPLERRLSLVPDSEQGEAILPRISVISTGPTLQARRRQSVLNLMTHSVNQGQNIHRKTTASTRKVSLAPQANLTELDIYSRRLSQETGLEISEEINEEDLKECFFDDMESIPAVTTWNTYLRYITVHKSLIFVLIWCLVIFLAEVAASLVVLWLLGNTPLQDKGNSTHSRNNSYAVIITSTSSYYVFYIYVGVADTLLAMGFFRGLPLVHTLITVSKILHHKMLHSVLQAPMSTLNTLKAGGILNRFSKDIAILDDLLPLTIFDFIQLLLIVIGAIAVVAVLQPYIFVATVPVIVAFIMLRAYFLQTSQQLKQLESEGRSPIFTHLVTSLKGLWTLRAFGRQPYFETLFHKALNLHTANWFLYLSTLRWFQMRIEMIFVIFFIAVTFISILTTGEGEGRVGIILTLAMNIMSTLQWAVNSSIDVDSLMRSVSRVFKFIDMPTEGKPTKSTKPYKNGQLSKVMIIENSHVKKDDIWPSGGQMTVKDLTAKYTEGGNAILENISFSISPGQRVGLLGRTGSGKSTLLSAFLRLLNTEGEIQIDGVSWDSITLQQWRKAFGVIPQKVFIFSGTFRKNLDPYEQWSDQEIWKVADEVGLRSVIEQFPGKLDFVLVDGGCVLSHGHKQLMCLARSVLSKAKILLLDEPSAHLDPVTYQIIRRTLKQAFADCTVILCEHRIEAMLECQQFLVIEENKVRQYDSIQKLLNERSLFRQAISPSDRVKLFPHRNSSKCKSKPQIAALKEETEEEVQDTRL

CFTR [4] = biological target: T1, CFTR; test: Membrane potential dye, Enteroid Assay A; assay type: cell-based; settings: Table 6; for Ent. A Max Activity: chloride transport as % of triple combination control (Enteroid Assay A); for EC50: human enteroid cells, 18-24 hours, acute 10 μM forskolin and 300 nM ivacaftor, read-out: Ent. A EC50
Method in brief: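 Human intestinal enteroids incubated 18-24 h at 37 °C with test compound, then loaded with 20 μM methyl oxonol (with CaCC inhibitors). Chloride transport triggered in chloride-free buffer with 10 μM forskolin, 100 μM IBMX, 300 nM Compound III; fluorescence read 15 min, expressed as % of a triple-combination corrector/potentiator control.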
Target sequence in this assay (P13569 with tags, fused parts or gaps DEL508-508): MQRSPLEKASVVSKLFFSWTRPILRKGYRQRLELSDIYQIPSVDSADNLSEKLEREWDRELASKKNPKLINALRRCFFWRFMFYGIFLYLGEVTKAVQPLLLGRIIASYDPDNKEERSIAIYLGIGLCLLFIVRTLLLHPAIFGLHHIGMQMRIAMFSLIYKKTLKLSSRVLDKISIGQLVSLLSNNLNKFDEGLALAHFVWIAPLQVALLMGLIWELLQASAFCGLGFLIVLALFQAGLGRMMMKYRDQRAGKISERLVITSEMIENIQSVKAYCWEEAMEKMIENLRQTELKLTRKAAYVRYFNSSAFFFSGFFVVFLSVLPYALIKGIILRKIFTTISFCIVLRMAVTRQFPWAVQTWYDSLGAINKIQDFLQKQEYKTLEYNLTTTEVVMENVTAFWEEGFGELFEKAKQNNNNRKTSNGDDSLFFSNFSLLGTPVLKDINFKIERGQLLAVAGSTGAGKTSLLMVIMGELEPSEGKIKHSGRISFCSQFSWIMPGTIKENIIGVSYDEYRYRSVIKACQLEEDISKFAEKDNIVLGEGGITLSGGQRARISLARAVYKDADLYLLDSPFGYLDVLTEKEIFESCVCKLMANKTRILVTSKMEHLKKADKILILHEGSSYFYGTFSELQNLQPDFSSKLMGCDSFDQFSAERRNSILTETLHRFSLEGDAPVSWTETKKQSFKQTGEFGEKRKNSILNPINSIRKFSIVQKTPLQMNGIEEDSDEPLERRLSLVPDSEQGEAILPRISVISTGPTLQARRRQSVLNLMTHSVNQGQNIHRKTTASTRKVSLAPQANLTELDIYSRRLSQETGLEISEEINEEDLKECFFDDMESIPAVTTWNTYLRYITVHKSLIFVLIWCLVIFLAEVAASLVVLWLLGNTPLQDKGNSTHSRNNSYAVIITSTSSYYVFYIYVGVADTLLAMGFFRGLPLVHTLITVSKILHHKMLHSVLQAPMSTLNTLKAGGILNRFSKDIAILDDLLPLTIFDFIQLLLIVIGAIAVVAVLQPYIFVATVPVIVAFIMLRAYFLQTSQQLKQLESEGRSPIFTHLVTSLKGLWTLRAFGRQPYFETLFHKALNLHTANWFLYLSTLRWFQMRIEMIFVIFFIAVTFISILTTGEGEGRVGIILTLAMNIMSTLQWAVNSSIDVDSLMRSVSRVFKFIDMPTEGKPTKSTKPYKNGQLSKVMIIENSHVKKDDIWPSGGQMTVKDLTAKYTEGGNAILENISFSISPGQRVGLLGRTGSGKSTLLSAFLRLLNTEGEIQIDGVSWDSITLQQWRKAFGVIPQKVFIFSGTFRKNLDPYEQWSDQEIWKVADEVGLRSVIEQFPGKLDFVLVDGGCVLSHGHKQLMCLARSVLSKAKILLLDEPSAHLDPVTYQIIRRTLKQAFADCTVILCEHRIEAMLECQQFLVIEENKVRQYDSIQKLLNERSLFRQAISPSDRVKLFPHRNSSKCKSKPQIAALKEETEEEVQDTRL

CFTR [5] = biological target: T2, CFTR (Homo sapiens, UniProt P13569, DEL508-508); test: HBE assay: Ussing chamber assay of CFTR-mediated short-circuit currents; assay type: cell-based; settings: for EC50: read-out: HBE EC50
T2 construct: endogenous in cells; host or cells: primary human bronchial epithelial cells from CF subjects (F508del/MF-HBE), differentiated at air-liquid interface
Method in brief: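 CFTR-mediated Isc (μA/cm²) equals the peak response to apical 20 μM forskolin minus the residual after a 20 μM each BPO/GlyH-101/CFTR inhibitor 172 cocktail, recorded in Ussing chambers at Vhold 0 mV, 37 °C, pH 7.4, with 30 μM apical amiloride. Cells were F508del/MF HBE cultures preincubated 18-24 h with corrector (concentration range or 10 μM) plus 1 μM ivacaftor in 20% human serum.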

CFTR [6] = biological target: T2, CFTR; test: HBE2 assay: Ussing chamber assay of CFTR-mediated short-circuit currents; assay type: cell-based; settings: F508del/MF-HBE cells, with 44 nM potentiator, 18-24 hours, 20% human serum
Method in brief: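 F508del/MF-HBE cultured >14 days at air-liquid interface, mounted in Ussing chambers; transepithelial short-circuit current recorded under voltage clamp (Vhold=0 mV) at 37 °C. CFTR-mediated ISC (μA/cm^2) taken as peak forskolin response relative to steady-state current after inhibition; corrector activity assessed this way.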

[7] = HBE assay, read-out: HBE Max activity (%)

T2 sequence (P13569 with tags, fused parts or gaps DEL508-508): as above

CCOC(=O)CCCCN1C(=O)c2cccc(n2)S(=O)(=O)Nc2nc(cc(-c3c(C)cccc3C)n2)OC[C@H]1CC(C)(C)C
ring closure, crude yield ([1]; from CCOC(=O)CCCCN[C@@H](COc1cc(-c2c(C)cccc2C)nc(NS(=O)(=O)c2cccc(C(=O)O)n2)n1)CC(C)(C)C, HATU/DIEA, 26.1 mM): 100%

COCN1c2nc(cc(-c3c(C)cccc3C)n2)OC[C@@H](CC(C)C)NC(=O)c2cccc(c2)S1(=O)=O
ring closure, crude yield ([1]; from COCN(c1nc(OC[C@H](N)CC(C)C)cc(-c2c(C)cccc2C)n1)S(=O)(=O)c1cccc(C(=O)O)c1, HATU/Et3N, 106.0 mM): 100%

Cc1cccc(C)c1-c1cc2nc(n1)NS(=O)(=O)c1cccc(c1)C(=O)N(CCC1(C(F)(F)F)CC1)[C@@H]1CN(C(=O)OC(C)(C)C)C[C@H]1O2
ring closure, isolated yield ([2]; from Cc1cccc(C)c1-c1cc(O[C@@H]2CN(C(=O)OC(C)(C)C)C[C@H]2NCCC2(C(F)(F)F)CC2)nc(NS(=O)(=O)c2cccc(C(=O)O)c2)n1, COMU/DIEA, DMF, 10.6 mM, 72.0 h): 92%

C[C@@H]1CCCCC[C@](O)(C(F)(F)F)C2=NN=C(O2)c2nc(c(C(F)(F)F)cc2N)O1 [(6R,12R)-17-amino-12-methyl-6,15-bis(trifluoromethyl)-13,19-dioxa-3,4,18-triazatricyclo[12.3.1.12,5]nonadeca-1(18),2,4,14,16-pentaen-6-ol]
CFTR modulatory activity (CFTR [3]): confirmed

Cc1cccc(C)c1-c1cc2nc(n1)NS(=O)(=O)c1cccc(c1)C(=O)N(C)CC(c1ccc(Br)cc1)O2 (centres unmarked) [Compound 8, 10-(4-Bromophenyl)-6-(2,6-dimethylphenyl)-12-methyl-2,2-dioxo-9-oxa-2λ^6-thia-3,5,12,19-tetrazatricyclo[12.3.1.14,8]nonadeca-1(18),4(19),5,7,14,16-hexaen-13-one]
ring closure, isolated yield ([2]; from CNCC(Oc1cc(-c2c(C)cccc2C)nc(NS(=O)(=O)c2cccc(C(=O)O)c2)n1)c1ccc(Br)cc1, HATU/DIEA, DMF, 29.7 mM, 25.0 °C, 2.0 h, 2 steps): 61%
Ent. A Max Activity (CFTR [4]): +++ (+++ is >60%)
EC50 (CFTR [4]): < 1 µM

Cc1cccc(C)c1-c1cc2nc(n1)NS(=O)(=O)c1cccc(c1)C(=O)N(C)CC(CNC(=O)OC(C)(C)C)O2 (centres unmarked) [Compound 97, tert-Butyl N-[[6-(2,6-dimethylphenyl)-12-methyl-2,2,13-trioxo-9-oxa-2λ^6-thia-3,5,12,19-tetrazatricyclo[12.3.1.14,8]nonadeca-1(18),4(19),5,7,14,16-hexaen-10-yl]methyl]carbamate]
ring closure, isolated yield ([2]; from CNCC(CNC(=O)OC(C)(C)C)Oc1cc(-c2c(C)cccc2C)nc(NS(=O)(=O)c2cccc(C(=O)O)c2)n1, HATU/DIEA, DMF, 37.9 mM, 25.0 °C, 0.25 h): 42%
Ent. A Max Activity (CFTR [4]): ++ (++ is 30-60%)
EC50 (CFTR [4]): 3 to 30 µM

Cc1cccc(C)c1-c1cc2nc(n1)NS(=O)(=O)c1cccc(c1)C(=O)N(C)CC(COCc1ccccc1)O2 (centres unmarked) [Compound 99, 10-(benzyloxymethyl)-6-(2,6-dimethylphenyl)-12-methyl-2,2-dioxo-9-oxa-2λ^6-thia-3,5,12,19-tetrazatricyclo[12.3.1.14,8]nonadeca-1(18),4(19),5,7,14,16-hexaen-13-one]
ring closure, isolated yield ([2]; from CNCC(COCc1ccccc1)Oc1cc(-c2c(C)cccc2C)nc(NS(=O)(=O)c2cccc(C(=O)O)c2)n1, HATU/DIEA, DMF, 33.6 mM, 25.0 °C, 0.25 h): 58%
Ent. A Max Activity (CFTR [4]): ++ (++ is 30-60%)
EC50 (CFTR [4]): 1 to 3 µM

Cc1cccc(C)c1-c1cc2nc(n1)NS(=O)(=O)c1cccc(c1)C(=O)N(Cc1ncc(N3CC(C)(C)C3)cn1)[C@H](CC(C)(C)C)CO2 [Compound 331]
ring closure, isolated yield ([2]; from Cc1cccc(C)c1-c1cc(OC[C@@H](CC(C)(C)C)NCc2ncc(N3CC(C)(C)C3)cn2)nc(NS(=O)(=O)c2cccc(C(=O)O)c2)n1, T3P/DIEA, MeCN, 34.5 mM, 0.0 °C, 2.5 h): 53%
EC50 (CFTR [5]; Table 11): < 1000 nM
Emax (CFTR [5]; Table 11, read-out: HBE Max Activity (%)): > 60%

Cc1cccc(C)c1-c1cc2nc(n1)NS(=O)(=O)c1cccc(c1)C(=O)N(Cc1ncc(OC(C)C)cn1)[C@H](CCC(C)(C)C)CO2 [Compound 1296, (11R)-11-(3,3-Dimethylbutyl)-6-(2,6-dimethylphenyl)-12-[(5-isopropoxypyrimidin-2-yl)methyl]-2,2-dioxo-9-oxa-2λ^6-thia-3,5,12,19-tetrazatricyclo[12.3.1.14,8]nonadeca-1(18),4(19),5,7,14,16-hexaen-13-one]
ring closure, isolated yield ([2]; from Cc1cccc(C)c1-c1cc(OC[C@@H](CCC(C)(C)C)NCc2ncc(OC(C)C)cn2)nc(NS(=O)(=O)c2cccc(C(=O)O)c2)n1, CDMT/NMM, DMF, 29.6 mM, 21.0 h): 60%
EC50 (CFTR [5]; HBE assay): < 1000 nM
Emax (CFTR [5]; [7]): > 60%
HBE2 Activity at 3 μM (%) (CFTR [6]): +++ (+++ is >60+)

Cc1cccc(C)c1-c1cc2nc(n1)NS(=O)(=O)c1cccc(c1)C(=O)N(Cc1ncc(OC(C)C)cn1)[C@H](CC1CCC1)CO2 [Compound 1297, (11R)-11-(Cyclobutylmethyl)-6-(2,6-dimethylphenyl)-12-[(5-isopropoxypyrimidin-2-yl)methyl]-2,2-dioxo-9-oxa-2λ^6-thia-3,5,12,19-tetrazatricyclo[12.3.1.14,8]nonadeca-1(18),4(19),5,7,14,16-hexaen-13-one]
ring closure, isolated yield ([2]; from Cc1cccc(C)c1-c1cc(OC[C@@H](CC2CCC2)NCc2ncc(OC(C)C)cn2)nc(NS(=O)(=O)c2cccc(C(=O)O)c2)n1, CDMT/NMM, DMF, 30.4 mM, 15.0 h): 58%
EC50 (CFTR [5]; HBE assay): < 1000 nM
Emax (CFTR [5]; [7]): > 60%
HBE2 Activity at 3 μM (%) (CFTR [6]): +++ (+++ is >60+)
EC50 (CFTR [6]): < 1000 nM
Emax (CFTR [6]; read-out: HBE2 Max activity (%)): > 60%
